Source: ChEMBL document CHEMBL1201862, “PubChem BioAssay data set” (2004)
Calls of active or inactive are those of the source. Cut-off read from the data, not from the text of the source, for most assays here: actives have a measured IC50 and inactives only a lower limit.

What was measured:
Assay type in all cases: functional
[1] = target: T1, Fatty acid synthase (Homo sapiens, UniProt P49327); experiment: inhibition of human FAS-TE enzyme activity – biochemical, kinetic fluorescence intensity, dose response (AID 624326);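 note: rate of fluorescence rise from hydrolysis of a fluorogenic O-methyl fluorescein ester substrate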
[2] = target: Apoptotic protease-activating factor 1 (Homo sapiens, UniProt O14727)
[3] = target: T1, Fatty acid synthase; experiment: inhibition of human FAS-TE enzyme activity – biochemical, endpoint fluorescence intensity, uHTS hits, dose response (AID 624327);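 note: fluorescence from hydrolysis of an O-methyl fluorescein acyl ester substrate by the enzyme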
[4] = target: T2, Sentrin-specific protease 8 (Homo sapiens, UniProt Q96LD8); experiment: inhibition of sentrin protease 8 – biochemical, luminescence, set 2, SAR follow-up (AID 588601)
T2 sequence (Q96LD8 whole entry): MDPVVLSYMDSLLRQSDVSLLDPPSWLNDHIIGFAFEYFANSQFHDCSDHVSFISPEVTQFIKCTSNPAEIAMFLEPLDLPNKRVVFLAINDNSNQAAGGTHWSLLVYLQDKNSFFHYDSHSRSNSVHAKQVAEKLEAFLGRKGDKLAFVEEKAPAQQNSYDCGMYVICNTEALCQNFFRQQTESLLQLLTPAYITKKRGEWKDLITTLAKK

[5] = target: T2, Sentrin-specific protease 8; experiment: inhibition of human SENP8 cleavage activity – biochemical, luminescence, SAR follow-up (AID 504501)
[6] = target: T3, Sentrin-specific protease 7 (Homo sapiens, UniProt Q9BQF6); experiment: inhibition of human SENP7 cleavage activity – biochemical, luminescence, set 2, SAR follow-up (AID 588600)
T3 sequence (Q9BQF6 whole entry): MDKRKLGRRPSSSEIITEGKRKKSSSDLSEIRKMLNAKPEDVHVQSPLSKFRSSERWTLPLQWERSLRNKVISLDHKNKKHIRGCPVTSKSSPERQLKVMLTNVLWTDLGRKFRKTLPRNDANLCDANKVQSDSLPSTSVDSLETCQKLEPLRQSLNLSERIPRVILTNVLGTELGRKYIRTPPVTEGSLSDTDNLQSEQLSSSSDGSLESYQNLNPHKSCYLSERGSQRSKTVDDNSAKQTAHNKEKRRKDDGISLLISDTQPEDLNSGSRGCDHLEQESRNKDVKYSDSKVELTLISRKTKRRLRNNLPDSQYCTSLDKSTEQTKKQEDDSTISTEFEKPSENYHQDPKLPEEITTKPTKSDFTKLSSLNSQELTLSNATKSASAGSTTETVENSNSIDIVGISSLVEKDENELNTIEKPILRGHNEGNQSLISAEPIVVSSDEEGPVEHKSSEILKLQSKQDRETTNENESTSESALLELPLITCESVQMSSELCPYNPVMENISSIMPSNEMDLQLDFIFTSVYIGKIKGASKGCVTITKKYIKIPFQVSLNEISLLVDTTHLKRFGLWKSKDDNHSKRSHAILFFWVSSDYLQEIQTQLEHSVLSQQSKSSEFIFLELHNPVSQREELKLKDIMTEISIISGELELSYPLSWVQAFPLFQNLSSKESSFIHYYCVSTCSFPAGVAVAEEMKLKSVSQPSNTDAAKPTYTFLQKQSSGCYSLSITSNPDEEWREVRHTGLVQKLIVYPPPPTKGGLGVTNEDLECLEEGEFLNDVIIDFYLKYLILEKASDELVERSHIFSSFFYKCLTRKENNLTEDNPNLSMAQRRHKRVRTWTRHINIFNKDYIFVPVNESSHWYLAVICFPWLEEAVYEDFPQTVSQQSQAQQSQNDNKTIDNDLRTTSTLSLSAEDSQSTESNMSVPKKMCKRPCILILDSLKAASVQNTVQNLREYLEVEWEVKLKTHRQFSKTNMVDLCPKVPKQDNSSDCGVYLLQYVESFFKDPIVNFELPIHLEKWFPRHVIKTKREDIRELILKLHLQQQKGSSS

[7] = target: T3, Sentrin-specific protease 7; experiment: inhibition of human SENP7 cleavage activity – biochemical, luminescence, SAR follow-up (AID 504497)
[8] = target: T4, Caspase-3 (Homo sapiens, UniProt P42574); experiment: SAR Analysis of small molecule inhibitors of Sentrin-specific proteases (SENPs) using a Caspase-3 Selectivity assay. [Related pubchem assays (depositor defined):AID2540, AID2599, AID434973, AID489001]
T4 sequence (P42574 whole entry): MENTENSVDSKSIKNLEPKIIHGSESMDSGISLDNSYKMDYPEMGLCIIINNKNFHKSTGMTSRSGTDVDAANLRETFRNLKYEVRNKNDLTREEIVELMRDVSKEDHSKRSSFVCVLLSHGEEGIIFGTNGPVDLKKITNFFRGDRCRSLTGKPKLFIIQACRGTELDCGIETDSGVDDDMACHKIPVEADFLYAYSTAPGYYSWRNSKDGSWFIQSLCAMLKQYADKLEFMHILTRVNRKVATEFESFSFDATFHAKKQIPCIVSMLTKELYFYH

[9] = target: T4, Caspase-3; experiment: inhibition of recombinant caspase-3 activity – biochemical, luminescence, set 2, selectivity assay for SENP protease inhibitor project, SAR follow-up (AID 588599)
[10] = target: T5, Sentrin-specific protease 6 (Homo sapiens, UniProt Q9GZR1); experiment: SAR Analysis of small molecule inhibitors of Sentrin-specific protease 6 (SENP6) using a Luminescent assay. [Related pubchem assays (depositor defined):AID2582, AID2599]
T5 sequence (Q9GZR1 whole entry): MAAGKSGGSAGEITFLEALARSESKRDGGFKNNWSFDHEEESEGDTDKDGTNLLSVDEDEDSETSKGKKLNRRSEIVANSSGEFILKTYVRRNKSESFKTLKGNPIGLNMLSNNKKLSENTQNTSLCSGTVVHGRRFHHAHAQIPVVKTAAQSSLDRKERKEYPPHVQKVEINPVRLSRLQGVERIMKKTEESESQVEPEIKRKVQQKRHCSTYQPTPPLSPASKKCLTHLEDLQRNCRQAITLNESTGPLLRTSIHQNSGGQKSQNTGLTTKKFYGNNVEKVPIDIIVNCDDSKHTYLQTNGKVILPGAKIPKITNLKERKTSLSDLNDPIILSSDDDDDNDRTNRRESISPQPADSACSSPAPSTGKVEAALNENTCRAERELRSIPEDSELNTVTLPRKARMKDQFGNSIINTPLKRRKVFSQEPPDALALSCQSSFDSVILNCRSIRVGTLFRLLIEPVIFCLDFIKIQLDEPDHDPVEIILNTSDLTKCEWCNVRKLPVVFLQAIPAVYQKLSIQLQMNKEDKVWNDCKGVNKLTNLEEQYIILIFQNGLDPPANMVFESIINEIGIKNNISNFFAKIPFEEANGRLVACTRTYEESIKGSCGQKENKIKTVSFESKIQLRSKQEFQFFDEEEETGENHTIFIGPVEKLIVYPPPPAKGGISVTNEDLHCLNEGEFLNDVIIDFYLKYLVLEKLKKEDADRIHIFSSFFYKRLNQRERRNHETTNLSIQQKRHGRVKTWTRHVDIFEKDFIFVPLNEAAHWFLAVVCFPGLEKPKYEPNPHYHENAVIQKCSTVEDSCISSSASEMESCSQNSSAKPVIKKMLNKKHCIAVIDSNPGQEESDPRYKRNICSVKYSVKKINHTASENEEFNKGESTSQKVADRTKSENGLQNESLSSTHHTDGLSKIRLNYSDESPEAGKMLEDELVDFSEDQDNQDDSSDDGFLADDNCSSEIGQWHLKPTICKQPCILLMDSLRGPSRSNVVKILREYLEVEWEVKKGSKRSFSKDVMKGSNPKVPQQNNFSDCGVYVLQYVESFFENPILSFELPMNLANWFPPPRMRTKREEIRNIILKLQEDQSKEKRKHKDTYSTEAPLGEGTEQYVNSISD

[11] = target: T5, Sentrin-specific protease 6; experiment: inhibition of human SENP6 catalytic domain – biochemical, luminescence, set 2, SAR follow-up (AID 588598)

T1 sequence (P49327 whole entry): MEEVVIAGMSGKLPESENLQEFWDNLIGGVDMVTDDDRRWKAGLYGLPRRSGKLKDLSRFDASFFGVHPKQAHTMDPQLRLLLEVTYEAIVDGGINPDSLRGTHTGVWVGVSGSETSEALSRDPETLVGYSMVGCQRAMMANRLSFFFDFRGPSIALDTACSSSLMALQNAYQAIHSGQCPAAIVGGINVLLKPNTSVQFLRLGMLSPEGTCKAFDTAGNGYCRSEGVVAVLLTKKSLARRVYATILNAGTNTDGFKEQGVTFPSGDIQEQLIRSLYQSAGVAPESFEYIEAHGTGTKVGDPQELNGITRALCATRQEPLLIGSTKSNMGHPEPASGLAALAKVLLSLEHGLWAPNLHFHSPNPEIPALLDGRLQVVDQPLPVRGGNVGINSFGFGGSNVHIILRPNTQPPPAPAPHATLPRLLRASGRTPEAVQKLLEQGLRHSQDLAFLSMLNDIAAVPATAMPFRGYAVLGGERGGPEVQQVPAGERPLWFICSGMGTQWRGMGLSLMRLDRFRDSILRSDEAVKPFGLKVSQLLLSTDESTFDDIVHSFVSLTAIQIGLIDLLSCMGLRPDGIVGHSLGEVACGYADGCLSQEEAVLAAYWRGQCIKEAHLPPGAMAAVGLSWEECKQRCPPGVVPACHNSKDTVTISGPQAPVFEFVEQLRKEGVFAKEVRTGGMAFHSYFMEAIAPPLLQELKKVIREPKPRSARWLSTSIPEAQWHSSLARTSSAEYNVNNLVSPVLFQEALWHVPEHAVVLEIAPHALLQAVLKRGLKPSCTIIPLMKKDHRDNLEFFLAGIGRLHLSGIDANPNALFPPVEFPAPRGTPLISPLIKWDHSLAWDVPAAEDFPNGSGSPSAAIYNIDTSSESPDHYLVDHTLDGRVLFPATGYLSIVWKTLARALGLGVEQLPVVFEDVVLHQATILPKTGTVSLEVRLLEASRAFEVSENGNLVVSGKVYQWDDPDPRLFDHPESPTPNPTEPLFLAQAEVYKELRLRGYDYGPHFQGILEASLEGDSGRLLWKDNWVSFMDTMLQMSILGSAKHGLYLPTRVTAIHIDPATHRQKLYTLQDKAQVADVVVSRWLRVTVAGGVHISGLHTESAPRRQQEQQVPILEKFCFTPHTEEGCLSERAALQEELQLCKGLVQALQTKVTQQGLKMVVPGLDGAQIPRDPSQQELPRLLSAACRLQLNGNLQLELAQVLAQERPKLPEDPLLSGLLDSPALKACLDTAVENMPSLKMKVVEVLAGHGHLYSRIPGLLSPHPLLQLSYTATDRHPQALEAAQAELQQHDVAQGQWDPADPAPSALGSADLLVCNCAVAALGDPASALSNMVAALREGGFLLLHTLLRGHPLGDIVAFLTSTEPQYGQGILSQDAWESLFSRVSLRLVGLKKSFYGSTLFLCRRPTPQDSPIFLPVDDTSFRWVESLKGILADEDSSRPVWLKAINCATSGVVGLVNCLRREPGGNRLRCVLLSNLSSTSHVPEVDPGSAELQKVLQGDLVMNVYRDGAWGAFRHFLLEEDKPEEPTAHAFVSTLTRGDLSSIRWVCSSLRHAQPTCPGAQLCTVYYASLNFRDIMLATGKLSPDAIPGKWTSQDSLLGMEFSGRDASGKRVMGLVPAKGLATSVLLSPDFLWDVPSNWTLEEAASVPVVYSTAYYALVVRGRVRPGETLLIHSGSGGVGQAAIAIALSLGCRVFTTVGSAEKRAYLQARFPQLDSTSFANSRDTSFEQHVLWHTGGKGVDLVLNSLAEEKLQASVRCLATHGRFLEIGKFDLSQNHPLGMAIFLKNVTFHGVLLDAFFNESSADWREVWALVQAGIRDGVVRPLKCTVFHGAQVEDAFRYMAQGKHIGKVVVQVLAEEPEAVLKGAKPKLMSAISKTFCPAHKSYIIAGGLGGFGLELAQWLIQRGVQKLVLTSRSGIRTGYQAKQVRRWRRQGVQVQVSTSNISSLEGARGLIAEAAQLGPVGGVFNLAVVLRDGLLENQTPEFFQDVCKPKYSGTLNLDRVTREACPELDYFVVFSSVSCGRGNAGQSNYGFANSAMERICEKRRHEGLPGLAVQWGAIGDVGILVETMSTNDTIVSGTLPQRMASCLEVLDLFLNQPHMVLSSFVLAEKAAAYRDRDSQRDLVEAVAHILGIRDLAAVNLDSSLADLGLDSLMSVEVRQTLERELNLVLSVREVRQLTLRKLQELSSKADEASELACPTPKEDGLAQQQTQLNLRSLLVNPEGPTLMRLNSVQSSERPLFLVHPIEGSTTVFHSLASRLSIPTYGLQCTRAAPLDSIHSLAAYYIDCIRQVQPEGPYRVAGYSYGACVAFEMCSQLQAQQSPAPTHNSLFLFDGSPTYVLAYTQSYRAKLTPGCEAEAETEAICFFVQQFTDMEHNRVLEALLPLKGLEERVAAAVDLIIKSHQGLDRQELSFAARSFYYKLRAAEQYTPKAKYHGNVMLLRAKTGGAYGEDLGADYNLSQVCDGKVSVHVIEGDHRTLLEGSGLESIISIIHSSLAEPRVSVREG
Sequence of Apoptotic protease-activating factor 1 (O14727 whole entry): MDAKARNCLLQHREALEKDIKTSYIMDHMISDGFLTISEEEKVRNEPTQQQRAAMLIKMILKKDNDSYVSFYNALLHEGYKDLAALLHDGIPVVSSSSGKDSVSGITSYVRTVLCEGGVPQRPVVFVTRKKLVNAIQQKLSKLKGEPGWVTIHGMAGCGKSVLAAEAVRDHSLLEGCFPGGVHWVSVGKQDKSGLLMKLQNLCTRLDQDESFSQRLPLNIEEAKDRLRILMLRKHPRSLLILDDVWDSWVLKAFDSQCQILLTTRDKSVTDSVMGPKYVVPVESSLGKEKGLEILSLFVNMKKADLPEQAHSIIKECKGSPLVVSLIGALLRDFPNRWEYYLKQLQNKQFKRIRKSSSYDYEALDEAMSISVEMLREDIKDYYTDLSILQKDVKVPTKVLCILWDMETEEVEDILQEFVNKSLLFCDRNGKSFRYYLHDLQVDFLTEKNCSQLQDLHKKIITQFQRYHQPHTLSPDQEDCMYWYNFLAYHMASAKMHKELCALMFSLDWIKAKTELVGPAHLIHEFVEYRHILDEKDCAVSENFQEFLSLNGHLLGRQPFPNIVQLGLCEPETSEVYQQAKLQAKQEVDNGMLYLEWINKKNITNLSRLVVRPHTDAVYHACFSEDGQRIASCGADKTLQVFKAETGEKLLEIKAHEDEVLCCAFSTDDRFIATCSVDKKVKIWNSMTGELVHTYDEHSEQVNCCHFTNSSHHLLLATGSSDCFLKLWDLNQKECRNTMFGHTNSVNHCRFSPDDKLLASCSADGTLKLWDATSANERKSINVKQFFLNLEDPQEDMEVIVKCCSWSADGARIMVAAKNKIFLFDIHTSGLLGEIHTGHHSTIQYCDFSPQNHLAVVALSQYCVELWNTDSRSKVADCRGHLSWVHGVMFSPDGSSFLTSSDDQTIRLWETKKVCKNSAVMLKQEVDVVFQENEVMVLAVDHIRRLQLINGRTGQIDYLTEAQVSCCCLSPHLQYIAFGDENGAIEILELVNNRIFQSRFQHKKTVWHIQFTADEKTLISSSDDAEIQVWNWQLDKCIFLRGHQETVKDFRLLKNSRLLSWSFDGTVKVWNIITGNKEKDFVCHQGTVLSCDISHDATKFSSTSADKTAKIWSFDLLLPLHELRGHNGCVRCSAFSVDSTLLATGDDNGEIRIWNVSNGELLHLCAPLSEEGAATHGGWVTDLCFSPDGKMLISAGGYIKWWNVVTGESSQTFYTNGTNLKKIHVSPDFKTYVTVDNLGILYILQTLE

CC(C)c1ccc(/C=N/Nc2cc(N3CCOCC3)nc(N3CCOCC3)n2)cc1
IC50 [1]: 379 nM (active) | IC50 [2]: 19100 nM (active) | IC50 [3]: 752 nM (active)

Oc1ccccc1-c1nc(/C=C/c2ccc(F)cc2)no1
IC50 [4]: 1640 nM (active) | IC50 [5]: > 99000 nM (inactive) | IC50 [6]: 1870 nM (active) | IC50 [7]: 1600 nM (active) | IC50 [8]: 5500 nM (active) | IC50 [9]: 2550 nM (active) | IC50 [10]: 20000 nM (active) | IC50 [11]: 1530 nM (active)
